Source: PubChem BioAssay (NCI)
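Dose response: 5 concentrations. Exposure: 48 h. Format: 96-well plates. Endpoint: linear interpolation; highest concentration if not reached. Definition used: TGI = concentration required for complete inhibition of growth.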

Legend:
Experiment in all cases: NCI tumour cell line growth inhibition, 48 h
ACHN renal = test system: ACHN renal
COLO 205 colon = test system: COLO 205 colon
DU-145 prostate = test system: DU-145 prostate
OVCAR-4 ovarian = test system: OVCAR-4 ovarian
HCT-15 colon = test system: HCT-15 colon
UO-31 renal = test system: UO-31 renal
CCRF-CEM leukemia = test system: CCRF-CEM leukemia
SF-295 CNS = test system: SF-295 CNS
M14 melanoma = test system: M14 melanoma
EKVX NSCLC = test system: EKVX NSCLC
UACC-62 melanoma = test system: UACC-62 melanoma
NCI-H226 lung = test system: NCI-H226 lung
SK-MEL-28 melanoma = test system: SK-MEL-28 melanoma
786-0 renal = test system: 786-0 renal
MDA-MB-231 breast = test system: MDA-MB-231 breast
SN12C renal = test system: SN12C renal
SF-268 CNS = test system: SF-268 CNS
SNB-75 CNS = test system: SNB-75 CNS
BT-549 breast = test system: BT-549 breast
HCC-2998 colon = test system: HCC-2998 colon
NCI/ADR-RES ovarian = test system: NCI/ADR-RES ovarian
HOP-62 NSCLC = test system: HOP-62 NSCLC
SF-539 CNS = test system: SF-539 CNS
CAKI-1 renal = test system: CAKI-1 renal
HOP-92 NSCLC = test system: HOP-92 NSCLC
SK-MEL-5 melanoma = test system: SK-MEL-5 melanoma
A498 renal = test system: A498 renal
OVCAR-3 ovarian = test system: OVCAR-3 ovarian
MCF7 breast = test system: MCF7 breast
TK-10 renal = test system: TK-10 renal
LOX IMVI melanoma = test system: LOX IMVI melanoma
SK-OV-3 ovarian = test system: SK-OV-3 ovarian
MDA-N = test system: MDA-N
OVCAR-8 ovarian = test system: OVCAR-8 ovarian
T-47D breast = test system: T-47D breast
NCI-H23 lung = test system: NCI-H23 lung
RXF 393 renal = test system: RXF 393 renal
RPMI-8226 leukemia = test system: RPMI-8226 leukemia
MOLT-4 leukemia = test system: MOLT-4 leukemia
OVCAR-5 ovarian = test system: OVCAR-5 ovarian
MDA-MB-435 = test system: MDA-MB-435
UACC-257 melanoma = test system: UACC-257 melanoma
MALME-3M melanoma = test system: MALME-3M melanoma
SNB-19 CNS = test system: SNB-19 CNS
IGROV1 ovarian = test system: IGROV1 ovarian
HS 578T breast = test system: HS 578T breast
KM12 colon = test system: KM12 colon
A549 NSCLC = test system: A549 NSCLC
SK-MEL-2 melanoma = test system: SK-MEL-2 melanoma
PC-3 prostate = test system: PC-3 prostate
HCT-116 colon = test system: HCT-116 colon
U251 CNS = test system: U251 CNS
NCI-H460 lung = test system: NCI-H460 lung
HT29 colon = test system: HT29 colon
HL-60(TB) leukemia = test system: HL-60(TB) leukemia
SW-620 colon = test system: SW-620 colon
NCI-H522 lung = test system: NCI-H522 lung
K-562 leukemia = test system: K-562 leukemia

CCOC(=O)c1cc(NC(=O)N(CCC#N)CCN(C(=O)N[C@@H](Cc2ccccc2)C(=O)N[C@@H](CC(C)C)C(=O)NC)c2ccccc2)ccc1OC
TGI (ACHN renal): > 100 µM
TGI (COLO 205 colon): > 100 µM
TGI (DU-145 prostate): > 100 µM
TGI (OVCAR-4 ovarian): > 100 µM
TGI (HCT-15 colon): > 100 µM
TGI (UO-31 renal): > 100 µM
TGI (CCRF-CEM leukemia): > 100 µM
TGI (SF-295 CNS): > 100 µM
TGI (M14 melanoma): > 100 µM
TGI (EKVX NSCLC): > 100 µM
TGI (UACC-62 melanoma): 24.9 µM
TGI (NCI-H226 lung): > 100 µM
TGI (SK-MEL-28 melanoma): > 100 µM
TGI (786-0 renal): > 100 µM
TGI (MDA-MB-231 breast): > 100 µM
TGI (SN12C renal): > 100 µM
TGI (SF-268 CNS): > 100 µM
TGI (SNB-75 CNS): > 100 µM
TGI (BT-549 breast): 82.9 µM
TGI (HCC-2998 colon): > 100 µM
TGI (NCI/ADR-RES ovarian): > 100 µM
TGI (HOP-62 NSCLC): > 100 µM
TGI (SF-539 CNS): 98.5 µM
TGI (CAKI-1 renal): > 100 µM
TGI (HOP-92 NSCLC): 71 µM
TGI (SK-MEL-5 melanoma): > 100 µM
TGI (A498 renal): > 100 µM
TGI (OVCAR-3 ovarian): > 100 µM
TGI (MCF7 breast): > 100 µM
TGI (TK-10 renal): > 100 µM
TGI (LOX IMVI melanoma): 41.5 µM
TGI (SK-OV-3 ovarian): > 100 µM
TGI (MDA-N): > 100 µM
TGI (OVCAR-8 ovarian): > 100 µM
TGI (T-47D breast): > 100 µM
TGI (NCI-H23 lung): > 100 µM
TGI (RXF 393 renal): 75.2 µM
TGI (RPMI-8226 leukemia): 57.9 µM
TGI (MOLT-4 leukemia): 82.1 µM
TGI (OVCAR-5 ovarian): > 100 µM
TGI (MDA-MB-435): > 100 µM
TGI (UACC-257 melanoma): 55 µM
TGI (MALME-3M melanoma): 73.5 µM
TGI (SNB-19 CNS): > 100 µM
TGI (IGROV1 ovarian): > 100 µM
TGI (HS 578T breast): > 100 µM
TGI (KM12 colon): > 100 µM
TGI (A549 NSCLC): > 100 µM
TGI (SK-MEL-2 melanoma): > 100 µM
TGI (PC-3 prostate): > 100 µM
TGI (HCT-116 colon): > 100 µM

Cc1cc(C)c2cc(N)c(Cl)nc2n1
TGI (ACHN renal): > 100 µM
TGI (COLO 205 colon): > 100 µM
TGI (DU-145 prostate): > 100 µM
TGI (HCT-15 colon): > 100 µM
TGI (UO-31 renal): > 100 µM
TGI (CCRF-CEM leukemia): > 100 µM
TGI (SF-295 CNS): > 100 µM
TGI (M14 melanoma): > 100 µM
TGI (EKVX NSCLC): > 100 µM
TGI (UACC-62 melanoma): > 100 µM
TGI (U251 CNS): > 100 µM
TGI (NCI-H226 lung): > 100 µM
TGI (786-0 renal): > 100 µM
TGI (MDA-MB-231 breast): > 100 µM
TGI (SN12C renal): > 100 µM
TGI (SF-268 CNS): > 100 µM
TGI (SNB-75 CNS): > 100 µM
TGI (BT-549 breast): > 100 µM
TGI (NCI/ADR-RES ovarian): > 100 µM
TGI (SF-539 CNS): > 100 µM
TGI (CAKI-1 renal): > 100 µM
TGI (HOP-92 NSCLC): > 100 µM
TGI (SK-MEL-5 melanoma): > 100 µM
TGI (MCF7 breast): > 100 µM
TGI (TK-10 renal): > 100 µM
TGI (SK-OV-3 ovarian): > 100 µM
TGI (MDA-N): > 100 µM
TGI (OVCAR-8 ovarian): > 100 µM
TGI (T-47D breast): > 100 µM
TGI (NCI-H23 lung): > 100 µM
TGI (RXF 393 renal): > 100 µM
TGI (RPMI-8226 leukemia): > 100 µM
TGI (NCI-H460 lung): > 100 µM
TGI (HT29 colon): > 100 µM
TGI (OVCAR-5 ovarian): > 100 µM
TGI (MDA-MB-435): > 100 µM
TGI (UACC-257 melanoma): > 100 µM
TGI (MALME-3M melanoma): > 100 µM
TGI (HL-60(TB) leukemia): > 100 µM
TGI (SW-620 colon): > 100 µM
TGI (SNB-19 CNS): > 100 µM
TGI (IGROV1 ovarian): > 100 µM
TGI (HS 578T breast): > 100 µM
TGI (KM12 colon): > 100 µM
TGI (A549 NSCLC): > 100 µM
TGI (SK-MEL-2 melanoma): > 100 µM
TGI (PC-3 prostate): > 100 µM
TGI (HCT-116 colon): > 100 µM
TGI (NCI-H522 lung): > 100 µM

COc1cc(C2c3[nH]c4ccccc4c3[C@@H](Nc3ccc(F)cc3)[C@H]3COC(=O)N23)cc(OC)c1O (stereo not given in full)
TGI (ACHN renal): 1.34 µM
TGI (DU-145 prostate): 4.07 µM
TGI (OVCAR-4 ovarian): > 10 µM
TGI (HCT-15 colon): 5.35 µM
TGI (UO-31 renal): 2.67 µM
TGI (CCRF-CEM leukemia): 3.93 µM
TGI (SF-295 CNS): 3.69 µM
TGI (M14 melanoma): 9.55 µM
TGI (EKVX NSCLC): > 10 µM
TGI (K-562 leukemia): > 10 µM
TGI (UACC-62 melanoma): 4.6 µM
TGI (U251 CNS): 7.96 µM
TGI (NCI-H226 lung): 2.9 µM
TGI (SK-MEL-28 melanoma): > 10 µM
TGI (MDA-MB-231 breast): > 10 µM
TGI (SN12C renal): 5.57 µM
TGI (SF-268 CNS): 7.01 µM
TGI (SNB-75 CNS): 6.08 µM
TGI (BT-549 breast): 4.28 µM
TGI (HCC-2998 colon): 3.34 µM
TGI (NCI/ADR-RES ovarian): > 10 µM
TGI (HOP-62 NSCLC): 3.42 µM
TGI (SF-539 CNS): 3.17 µM
TGI (CAKI-1 renal): 3.22 µM
TGI (HOP-92 NSCLC): > 10 µM
TGI (SK-MEL-5 melanoma): 2.48 µM
TGI (A498 renal): 7.55 µM
TGI (OVCAR-3 ovarian): 6.09 µM
TGI (MCF7 breast): > 10 µM
TGI (TK-10 renal): 4.85 µM
TGI (LOX IMVI melanoma): 3.26 µM
TGI (SK-OV-3 ovarian): 3.95 µM
TGI (MDA-N): > 10 µM
TGI (OVCAR-8 ovarian): > 10 µM
TGI (T-47D breast): > 10 µM
TGI (NCI-H23 lung): 5.18 µM
TGI (NCI-H460 lung): 4.74 µM
TGI (HT29 colon): > 10 µM
TGI (OVCAR-5 ovarian): 9.08 µM
TGI (MDA-MB-435): > 10 µM
TGI (UACC-257 melanoma): > 10 µM
TGI (MALME-3M melanoma): 7.28 µM
TGI (SW-620 colon): 5.74 µM
TGI (SNB-19 CNS): 7.09 µM
TGI (IGROV1 ovarian): 9.24 µM
TGI (HS 578T breast): 2.11 µM
TGI (KM12 colon): 6.5 µM
TGI (A549 NSCLC): 3.31 µM
TGI (PC-3 prostate): > 10 µM
TGI (HCT-116 colon): > 10 µM
